Test results published in patent publication US20080050452A1, “METAL-CONTAINING FORMULATIONS AND METHODS OF USE” (priority 2006, published 2008).
Values after ≈ are worked out from the molar mass of the structure shown.

Legend:
[1] = Compatibility of nanocrystalline silver with excipients; type: physicochemical; details: 10% aqueous solution of excipient mixed with nanocrystalline silver in glass vial, 40° C. overnight
[2] = tested on: Staphylococcus aureus; experiment: MIC assay; type: cell-based; details: solutions in 0.1 M lactate buffer pH 4.0
[3] = tested on: Staphylococcus epidermidis; experiment: MIC assay; type: cell-based; details: S. epiderm (ATCC); solutions in 0.1 M lactate buffer pH 4.0
[4] = tested on: Streptococcus pyogenes; experiment: MIC assay; type: cell-based; details: solutions in 0.1 M lactate buffer pH 4.0
[5] = tested on: Streptococcus pneumoniae; experiment: MIC assay; type: cell-based; details: solutions in 0.1 M lactate buffer pH 4.0
[6] = tested on: Pseudomonas aeruginosa; experiment: MIC assay; type: cell-based; details: solutions in 0.1 M lactate buffer pH 4.0
[7] = tested on: Escherichia coli; experiment: MIC assay; type: cell-based
[8] = tested on: DNBS-induced colitis; experiment: Total IBD score in rat DNBS-induced colitis; type: in vivo, Sprague-Dawley rats
From the text: Animals: Male Sprague-Dawley rats, weighing approximately 250-300 gm were purchased from Charles River Laboratories (Raleigh, N.C.). The animals were housed under standard conditions with free access to food and water. They were acclimatized for 2-3 days before commencing the experiments. The study protocol was approved by the Institutional Animal Care and Use Committees (IACUC).
Induction of ulcerative colitis: Colitis was produced according to published methods. Animals were anesthetized by intraperitoneal injection of 75 mg/kg of ketamine plus 5 mg/kg of xylazine. A single intracolonic injection of 120 mg/ml of dinitrobenzenesulfonic acid (DNBS) (Sigma Chemicals, St. Louis, Mo.) in 250 micro liter of 50% ethanol was administered through a Tom Cat catheter (Kendall Sovereign, Mansfield, Mass.) with a closed-end tip, connected to a 1 ml syringe and placed 7 cm proximal to the anus. Lubricant was applied to the tip of the catheter before injection, to protect from mucosal injury. After instillation of DNBS, 0.5 ml of air was insufflated and the catheter was removed.
Sulfasalazine (Sigma Chemicals, St Louis, Mo.), at a concentration of 120 mg/ml for intracolonic treatment and 30 mg/ml for oral treatment was used as the reference drug in all the experiments. Sulfasalazine was first dissolved in 0.1M NaOH at a concentration about 30-fold higher than the required final concentration, and then suspended in 1.5% PVA for oral dosing and 5.7% PVA for intracolonic dosing.
One group was not treated and served as no treatment group. Treatment began one day after administration of DNBS.
Macroscopic Observations: Body weight was recorded daily and the animals were examined for their physical appearance. After five days of treatment, animals were sacrificed. The colon was excised between the ileocecal junction and rectum, and opened longitudinally. After scoring of the consistency of the stool the colon was rinsed in normal saline, examined and thickness of the colonic wall and number and size of ulcers were scored. Stool consistency was graded on a scale of 0-3: 0=normal stool, well formed pellets rigid as normal; 1=loose stool, formed pellet with moisture, soft stool keeping in stool shape; 2=loose stool, stools that have abnormal form with much moisture, softer shapeless stool; 3=watery or bloody diarrhea.
Thickness of colonic wall was graded on a scale of 0-4: 0=normal, no thickness; 1=mild thickness in lower portion of the colon; 2=moderate thickness in localized area; 3=moderate thickness extending to the central portion of the colon; 4=severe thickness in the whole colon. Colonic ulceration was graded on a scale of 0-10: 0=no ulcers; 1=one small ulcer less than 2-3 mm; 2=one large ulcer more than 2-3 mm; 3=two large ulcerations more than 2-3 mm in diameter; 4=two or more sites of ulcerations extending 1 cm along the length; 5-10=when an area of ulceration extended more than 1 cm along the length of the colon, the score increases by 1 for each additional cm of involvement. The total IBD score, obtained by the sum of the scores of colonic ulcer, colon thickness and stool consistency for each animal, was calculated for each treatment group.
Statistical Analysis: The results are expressed as the mean ±SE. The statistical significance in the mean total IBD score, histopathological inflammation score, and the immunohistochemical staining of cytokines or MMP-9 was determined using Tukey-Kramer's multiple comparison tests following one-way analysis of variance (ANOVA). The data were calculated with the aid of Instat Graph Pad Software. Differences with a P value less than 0.05 were considered significant.
Methods: Colitis was induced in rats using DNBS as described in Example 25. Animals were treated intracolonically (250 μl of the test reagents) once a day for five days. […] Methods: Colitis was induced in rats using DNBS as described in Example 25. Animals were treated intracolonically (250 μl of the test reagents) once a day for five days.

[9] = tested on: Enterobacter cloacae; experiment: MIC assay; type: cell-based; details: Ent. cloacae
[10] = Body weight in rat DNBS-induced colitis; type: in vivo, Sprague-Dawley rats; details: rats with DNBS-induced colitis, intracolonic or oral treatment
[11] = tested on: DNBS-induced colitis; experiment: Histopathological inflammation score of colon, rat DNBS-induced colitis; type: in vivo, Sprague-Dawley rats; details: oral, 100 mg/kg, five days, vs placebo and untreated
Experimental: Histopathology: A piece of colonic tissue at 2-4 cm proximal to the anus was excised and fixed in 10% formalin and the sections were stained with hematoxylin and eosin. The remaining length of the colonic tissues was stored at −80° C. for subsequent biochemical assays. The histology slides were examined by a veterinary pathologist who was blinded to the treatment groups. The extent of microscopic mucosal damage of the colon was scored on scale of 0-5 as described with slight modification: 0=normal histological appearance; 1=histological damage limited to surface epithelium, mild infiltration of the submucosa; 2=focal ulceration and cell disruption limited to mucosa, abnormal appearance of colonic wall, mild infiltration of inflammatory cells; 3=focal, transmural inflammation and ulceration, with mild to moderate infiltration of inflammatory cells; 4=Extensive transmural ulceration and inflammation bordered by areas of normal mucosa, moderate infiltration of inflammatory cells; 5=extensive transmural ulceration and inflammation involving entire section from epithelium to serosa, severe infiltration of inflammatory cells.
Statistical Analysis: The results are expressed as the mean ±SE. […] The data were calculated with the aid of Instat Graph Pad Software. […]

[12] = tested on: IL-1β; experiment: Immunohistochemical staining of colon, rat DNBS-induced colitis; type: in vivo; details: oral treatment five days
Experimental: (§1) Immunohistochemistry: A Universal Streptavidin/Biotin detection system (Thermo Shandon, Pittsburgh, Pa.) was used for immunohistochemical staining of formalin fixed, paraffin embedded biopsies of the colon. After dewaxing, and hydration, sections were treated with protein blocking agent to reduce non-specific binding of antibodies. The tissues were then incubated with rabbit anti-rat TNF-α, or mouse anti-rat IL-12 p70 antibodies (Biosource International, Inc, Camarillo, Calif.); rabbit anti-rat IL-1β (Serotec, Raleigh, N.C.) or rabbit anti-rat MMP-9 antibody (Chemicon International, Telecuma, Calif.) in 1% bovine serum albumin in phosphate buffered saline. Incubations with secondary antibodies, streptavidin/biotin, and chromogenic detection of peroxidase were performed according to the manufacturer's protocol. Sections were counterstained, dehydrated, mounted and examined. The intensity of the immuno-peroxidase staining was graded as described previously. Expression of cytokines was graded as: 0, no staining in the section; 1, less than 25% of the section; 2, 25-50% of the section; 3, 50-75% of the section; 4, >75% of the section with significant staining.

[13] = tested on: MMP-9; experiment: as above; type: in vivo; details: colonic tissues, oral treatment, vs placebo and no treatment
Experimental: as §1

[14] = tested on: TNF-α; experiment: as above; type: in vivo; details: oral treatment five days
Experimental: as §1

## CC(O)CO (stereo not drawn) [Propylene glycol]
[1]
  Reaction with nanocrystalline silver: Discoloration

## COC(=O)c1ccc(O)cc1 [Methylparaben]
[1]
  Reaction with nanocrystalline silver: Brown discoloration

## Sodium parabens
[1]
  Reaction with nanocrystalline silver: Precipitation

## CCCCCCCCCCCCCCCCCC(=O)O [Stearic acid]
[1]
  Reaction with nanocrystalline silver: Grey color - no discoloration

## silver oxide [Ag2O]
[2]; S. aureus (ATCC)
  MIC: 3 µg/mL
[2]; S. aureus (clin.)
  MIC: 6 µg/mL
[3]
  MIC: 2 µg/mL
[4]; S. pyog (clin. 303)
  MIC: 2 µg/mL
[4]; S. pyog (clin. 304)
  MIC: 3 µg/mL
[5]; S. pneumo (clin 314)
  MIC: 3 µg/mL
[5]; S. pneumo (clin 315)
  MIC: 2 µg/mL
[6]; P. aerug (ATCC)
  MIC: 0.8 µg/mL
[6]; P. aerug. (clin.)
  MIC: 2 µg/mL
[7]; E. coli (ATCC), solutions in 0.1 M lactate buffer pH 4.0
  MIC: 0.8 µg/mL
[8]; Example 27, intracolonic 250 μl once a day for five days, 0.25% homogenized
  total IBD score vs placebo: unable to show significant reduction
[8]; Example 27, intracolonic 250 μl once a day for five days, 0.5% homogenized
  total IBD score vs placebo: unable to show significant reduction
[8]; Example 27, intracolonic 250 μl once a day for five days, 0.5% sonicated nanodispersion
  total IBD score vs placebo: significantly reduced
[8]; Example 28, intracolonic 250 μl once a day for five days, 0.5% sonicated nanodispersion
  total IBD score vs placebo: significantly reduced
[8]; Example 28, intracolonic 250 μl once a day for five days, 1.5% sonicated nanodispersion
  total IBD score vs placebo: significantly reduced

## CCCOC(=O)c1ccc(O)cc1 [Propylparaben]
[1]
  Reaction with nanocrystalline silver: Green discoloration

## Polyoxyl 40 stearate
[1]
  Reaction with nanocrystalline silver: Grey color - no discoloration

## OO [Sample H2O2, hydrogen peroxide]
[1]
  Reaction with nanocrystalline silver: Brown discoloration after drying
[9]; absence of catalase and superoxide dismutase (−)
  MIC: 63 µg/mL (≈ 1850 µM)
[9]; presence of catalase and superoxide dismutase (+)
  MIC: >500 µg/mL
[7]; E. coli, absence of catalase and superoxide dismutase (−)
  MIC: 31 µg/mL (≈ 911 µM)
[7]; E. coli, presence of catalase and superoxide dismutase (+)
  MIC: >500 µg/mL

## CCCCCCCCCCCCCC(=O)OC(C)C [Isopropyl myristate]
[1]
  Reaction with nanocrystalline silver: Grey color - no discoloration

## O=C([O-])c1ccccc1.[Na+] [Sodium benzoate]
[1]
  Reaction with nanocrystalline silver: White precipitate

## PEG 400
[1]
  Reaction with nanocrystalline silver: Grey color - no discoloration

## OCc1ccccc1 [Benzyl alcohol]
[1]
  Reaction with nanocrystalline silver: Grey/slightly red

## CCOCCOCCO [Transcutol, diethylene glycol monoethyl ether]
[1]
  Reaction with nanocrystalline silver: Grey color - no discoloration

## CCCCCCCCCCCCCCCCCCO [Cetearyl alcohol]
[1]
  Reaction with nanocrystalline silver: Light brown/green/black

## CCCCCCCCCCCCCCCCO [Cetyl alcohol]
[1]
  Reaction with nanocrystalline silver: Grey color - no discoloration

## O=C(O)c1cc(/N=N/c2ccc(S(=O)(=O)Nc3ccccn3)cc2)ccc1O [sulfasalazine, salicylazosulfapyridine]
[10]
  body weight change: started gaining body weight after one day of treatment
[8]; Example 27, intracolonic, 100 mg/kg
  total IBD score vs placebo: significantly reduced
[8]; Example 28, intracolonic, 100 mg/kg
  total IBD score vs placebo: significantly reduced
[8]; intracolonic, 100 mg/kg, five days
  total IBD score: Significant reduction
[11]
  histopathological inflammation score: significantly reduced
[12]
  expression of IL-1β (immunohistochemical staining): significantly reduced
[13]
  expression of MMP-9 (immunohistochemical staining): significantly reduced
[14]
  expression of TNF-α (immunohistochemical staining): significantly reduced

## CCCCCCCCCCCCCCCCCC(=O)OCC(O)CO (stereo not drawn) [Glycerol monostearate]
[1]
  Reaction with nanocrystalline silver: Brown discoloration
